Reference: patent publication US20210253511A1, “COMPOUNDS AND USES FOR THE TREATMENT AND PREVENTION OF DISEASES AND CONDITIONS ASSOCIATE WITH OR AGGREVATED BY IMPARED MITOPHAGY” (Yissum Research Development Company of The Hebrew …, priority 2018, published 2021)
“Also recorded” adds a separate entry of the source.

Legend:
C. elegans = assay: Lifespan assay; format: in vivo; settings: 4 mM from L1; 21° C.; control 12 days; p=0.0063
Description: FIG. 10. […] Survival curves comparing the lifespans of worm growing on plates containing 0.25 mM and 4 mM 1,8-Diaminooctane (or vehicle as a control). The curves represent data from at least three independent experiments in which the lifespans of at least 145 worms were measured (for each condition). The lifespan medians and p values are indicated in the parentheses near the treatment legend. All lifespan assays were conducted at 21° C. and started with synchronized L1 larvae. Statistical analysis on lifespan survival curves was performed using the log-rank (Mantel-Cox).
Lifespan assays were performed as described in R. Abergel, L. Livshits, M. Shaked, A. K. Chatterjee, E. Gross, Synergism between soluble guanylate cyclase signaling and neuropeptides extends lifespan in the nematode Caenorhabditis elegans, Aging cell 16 (2) (2017) 401-413. In brief, 12 worms per plate were used. […] Worm's survival was scored every two days for live, dead (when it no longer responded to touch), and missing worms. The worms were transferred into fresh plates every 2 days to avoid progeny contamination and every 4 days when worms are in post-fertile stage, until the end of the experiment. Worms were scored as censored when they display internal progeny hatching (worm bagging), rupture, burrow in the agar or crawl off the plates, however, include them in the lifespan data analysis as censored. […]

[1] = test system: C. elegans worms in 200 mM paraquat (PQ); assay: Paraquat survival assay; format: in vivo; settings: 200 mM PQ
Description: C. elegans strains were grown at 21° C. on nematode growth media (NGM) agar plates containing diamines or vehicle as a control. The NGM agar plates were prepared as described in L. Livshits, E. Gross, A method for measuring sulfide toxicity in the nematode Caenorhabditis elegans, MethodsX 4 (2017) 250-255. A suspension of 3 g sodium chloride (NaCl), 20 g Bacto agar, and 2.5 g of Bacto peptone in 1 L of double distilled water (DDW) was mixed and autoclaved. Then, the medium was cooled to 55° C. and supplemented with 1 ml of 100 mM CaCl2), 1 ml of 100 mM MgSO4, 25 ml of 1 M potassium phosphate buffer pH 6, and 1 ml of 5 mg/ml cholesterol (the cholesterol was dissolved in ethanol). Diamines or DDW (vehicle) were added to the NGM-agar solution. For RNAi NGM-agar plates, Isopropyl β-D-1-thiogalactopyranoside (IPTG) and ampicillin were added to a final concentration of 1 mM and 100 μg/ml, respectively. The NGM-agar solution was thoroughly vortex mixed and immediately poured into 35 mm petri dish (4 ml per plate). NGM-plates were covered with aluminum foil and dried for 24 h at room temperature (RT). 24 h before the experiment, plates were seeded with 100 μl bacteria (OD600=0.6, OP50 or HT115(DE3)). The seeded plates were covered with aluminum foil and dried for 24 h at RT.
To get synchronized C. elegans larvae, the method described in W. B. Wood, The Nematode Caenorhabditis Elegans, Cold Spring Harbor Laboratory 1988, was performed. In brief, hypochlorite/NaOH solution was made by mixing 1 ml of 5% solution of sodium hypochlorite, 800 μl of 2.5 N NaOH and 2.2 ml DDW to final concentrations of 0.5 N NaOH and 1.25% sodium hypochlorite. M9 buffer was made by dissolving 3 g KH2PO4, 6 g Na2HPO4, 5 g NaCl and 1 ml of MgSO4 from 1M stock in 1 litter of DDW. The solution pH was adjusted to 7 and sterilizes by filtration (with a 0.2 µm filter bottle). Gravid hermaphrodites was washed from the NGM plates into a 15 ml tube with M9 buffer and centrifuged for 2 min at 900×g, RT. Liquid was removed until 2 ml worms' suspension was left and added 2 ml of hypochlorite/NaOH solution. A 5 ml syringe with a 21-gauge needle was used to aspirate the worm suspension back and forth several times. After 3 min it was observed the state of the worms using a dissecting stereoscope. At this stage, approximately 50% of worms should appear broken and many of the embryos should float in the solution. The embryos were immediately sedimented using centrifugation (1690×g for 2 min) and carefully removed the supernatant and add 10 ml of M9 buffer. This washing step was repeated three additional times. The supernatant was removed until 2 ml remains and rotated the tube for 16 h at RT. The hatched L larvae were collected by centrifugation (1690×g for 3 min) and put ˜80 L in each seeded NGM assay plate. Grow the L1 (Day 1) for 3 days until they become young adults (Day 3).

NCCCCCCCCN [1,8-Diaminooctane]
median lifespan (C. elegans): 15 days | survival of worms in paraquat ([1]; 0.0625, 0.25, 1 and 4 mM (all treatments), L1 to young adult (~48 h), vs distilled-water control, log-rank p<0.0001): increase the survival of worms significantly; also recorded: significantly increases the resistance to paraquat toxicity in a dose-dependent manner | survival of worms in paraquat ([1]; compound at 4 mM, vs control worms): best protection | survival of worms in paraquat ([1]; tested at 0.0625 mM and 0.25 mM, not split): significantly improved the survival of worms in PQ
